For this assay, the target named is Histone deacetylase 8 (Homo sapiens, UniProt Q9BY41). As to the kind of experiment: Inhibition of recombinant full length C-terminal His-tagged human HDAC8 expressed in baculovirus infected in Sf9 cells using Ac-peptide-AMC as substrate after 1 hr by fluorescence assay.

Each structure is given as a SMILES string.

Chain of Histone deacetylase 8 (Q9BY41 whole entry): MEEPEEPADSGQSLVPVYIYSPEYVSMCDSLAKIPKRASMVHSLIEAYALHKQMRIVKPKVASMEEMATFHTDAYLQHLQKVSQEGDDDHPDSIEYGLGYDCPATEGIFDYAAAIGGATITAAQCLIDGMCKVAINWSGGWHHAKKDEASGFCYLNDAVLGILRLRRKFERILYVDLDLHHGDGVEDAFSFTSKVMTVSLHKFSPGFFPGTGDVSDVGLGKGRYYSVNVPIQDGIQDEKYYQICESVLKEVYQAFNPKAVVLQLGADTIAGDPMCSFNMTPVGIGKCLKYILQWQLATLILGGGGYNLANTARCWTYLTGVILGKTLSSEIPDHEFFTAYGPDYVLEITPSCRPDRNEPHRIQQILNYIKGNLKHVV

On to `Cc1ccc(CN2CCC(c3noc(CN(C)c4ncc(C(=O)NO)cn4)n3)CC2)cc1`, for which the IC50 (as a rule, the concentration at which inhibition is half-maximal) stood at 260 nM.

The values above are taken from ChEMBL document CHEMBL4364248, “Discovery of 1,2,4-oxadiazole-Containing hydroxamic acid derivatives as histone deacetylase inhibitors potential application in cancer therapy” (Eur J Med Chem, 2019).
